Where a name gives a salt, the structure may show the parent alone.
Molecular target: T1, AR (androgen receptor) protein in VCaP cells (Homo sapiens, UniProt P10275)
T1 construct: endogenous in cells; host or cells: VCaP cells
T1 sequence (P10275 1-920): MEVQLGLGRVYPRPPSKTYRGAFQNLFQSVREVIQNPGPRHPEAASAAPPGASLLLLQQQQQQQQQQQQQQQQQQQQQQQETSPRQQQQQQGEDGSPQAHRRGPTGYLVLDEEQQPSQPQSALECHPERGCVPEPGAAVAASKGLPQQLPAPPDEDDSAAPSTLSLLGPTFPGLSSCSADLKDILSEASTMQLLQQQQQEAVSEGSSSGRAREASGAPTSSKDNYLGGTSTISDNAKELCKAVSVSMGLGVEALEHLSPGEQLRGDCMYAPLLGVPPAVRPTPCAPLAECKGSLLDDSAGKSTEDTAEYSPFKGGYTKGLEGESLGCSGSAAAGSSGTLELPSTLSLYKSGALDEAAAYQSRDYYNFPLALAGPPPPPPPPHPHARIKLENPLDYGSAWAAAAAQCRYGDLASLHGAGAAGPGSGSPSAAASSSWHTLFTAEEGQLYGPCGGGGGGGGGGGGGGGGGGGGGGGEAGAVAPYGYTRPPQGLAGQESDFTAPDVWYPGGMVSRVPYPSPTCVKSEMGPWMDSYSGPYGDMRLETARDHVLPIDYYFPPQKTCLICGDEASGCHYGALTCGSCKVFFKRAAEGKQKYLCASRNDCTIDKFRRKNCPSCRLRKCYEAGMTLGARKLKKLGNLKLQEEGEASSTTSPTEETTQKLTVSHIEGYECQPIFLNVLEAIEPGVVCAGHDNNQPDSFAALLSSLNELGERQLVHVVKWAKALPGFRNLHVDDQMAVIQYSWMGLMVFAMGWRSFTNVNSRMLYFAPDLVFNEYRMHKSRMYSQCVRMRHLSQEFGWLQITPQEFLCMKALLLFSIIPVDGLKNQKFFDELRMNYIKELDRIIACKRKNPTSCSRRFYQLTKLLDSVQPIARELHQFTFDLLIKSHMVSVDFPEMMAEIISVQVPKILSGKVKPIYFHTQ
Assay: VCAP AR Degradation Assay
Type: cell-based
Conditions: 24 h, AR ELISA; for DC50: concentration of compound when AR level = 50% of DMSO control; for remaining activity at up to 5 µM: top concentration 5 μM, read-out: Y (lowest measured AR level normalized to DMSO control, AR degradation efficiency)
Experimental: VCAP AR Degradation Assay. Test compounds were pre-dispensed into a Corning CellBind 96-well clear bottom plate (Cat #3300) using an acoustic dispenser to make a 10-point concentration series at 1:3 dilution for each compound. The final top concentration of each compound was 5 μM. DMSO at a final concentration of 0.1% was used as a control. VCaP cells cultured in DMEM with 8% fetal bovine serum (FBS) were seeded at 50K cells per well in a 200 μL volume into the compound plate and incubated at 37° C. in a CO2 incubator for 24 h. The medium was carefully removed from the cells and the plate was placed on ice. One hundred μL of ice-cold 1× cell lysis buffer from Cell Signaling Technologies (Cat #9803) was added to each well of the cells and the plate was incubated at 4° C. on a shaker for 1 h. Fifteen μL of cell lysate was used for AR ELISA detection using a PathScan Total Sandwich AR ELISA kit (Cell Signaling Technology, Cat #12580). AR levels in compound-treated wells were normalized to that of DMSO control and expressed as percent of control (PoC) (y). A Four Parameter Logistic Model (Sigmoidal Dose-Response Model) was used to determine the compound's DC50, and EC50, using the following equation: y=(A+((B−A)/(1+((C/x)^D)))) • A=YMin (lowest AR level normalized to DMSO control in response to compound treatment, as determined by curve fit) • B=YMax (maximum AR level as determined by curve fit) • C=EC50 • D=Hill Slope • x=compound concentration • EC50=the concentration of compound when y=(YMax−YMin)/2 • DC50=the concentration of the compound when y=50% of DMSO control (50% AR degradation) • y=AR protein level normalized to DMSO control
The lowest measured AR level normalized to DMSO control in response to compound treatment, termed Y value, was used to characterize the compound-mediated AR degradation efficiency.

Row | Structure (SMILES) | DC50 | remaining activity at up to 5 µM
1 | C[C@@H]1CN(CCO[C@H]2CC[C@H](N3C(=S)N(c4ccc(C#N)c(C(F)(F)F)c4)C(=O)C3(C)C)CC2)C[C@H](C)N1CC(=O)Nc1cccc2c(C3CCC(=O)NC3=O)nn(C)c12 (stereo partly drawn) [Cmpd 1, 2-((2S,6R)-4-(2-((trans-4-(3-(4-Cyano-3-(trifluoromethyl)phenyl)-5,5-dimethyl-4-oxo-2-thioxoimidazolidin-1-yl)cyclohexyl)oxy)ethyl)-2,6-dimethylpiperazin-1-yl)-N-(3-(2,6-dioxopiperidin-3-yl)-1-methyl-1H-indazol-7-yl)acetamide hydrochloride] | < 2 nM | 0 to 25%
2 | C[C@@H]1CN(CCC[C@H]2CC[C@H](N3C(=S)N(c4ccc(C#N)c(C(F)(F)F)c4)C(=O)C3(C)C)CC2)C[C@H](C)N1CC(=O)Nc1cccc2c(C3CCC(=O)NC3=O)nn(C)c12 (stereo partly drawn) [Cmpd 2, 2-((2R,6S)-4-(3-(trans-4-(3-(4-cyano-3-(trifluoromethyl)phenyl)-5,5-dimethyl-4-oxo-2-thioxoimidazolidin-1-yl)cyclohexyl)propyl)-2,6-dimethylpiperazin-1-yl)-N-(3-(2,6-dioxopiperidin-3-yl)-1-methyl-1H-indazol-7-yl)acetamide hydrochloride] | 2 to 5 nM | 30 to 50%
3 | C[C@@H]1CN(CCO[C@H]2CC[C@H](N3C(=S)N(c4ccc(C#N)c(Cl)c4)C(=O)C3(C)C)CC2)C[C@H](C)N1CC(=O)Nc1cccc2c(C3CCC(=O)NC3=O)nn(C)c12 (stereo partly drawn) [Cmpd 3, 2-((2R,6S)-4-(2-((trans-4-(3-(3-Chloro-4-cyanophenyl)-5,5-dimethyl-4-oxo-2-thioxoimidazolidin-1-yl)cyclohexyl)oxy)ethyl)-2,6-dimethylpiperazin-1-yl)-N-(3-(2,6-dioxopiperidin-3-yl)-1-methyl-1H-indazol-7-yl)acetamide hydrochloride] | < 2 nM | 0 to 25%
4 | C[C@@H]1CN(CCO[C@H]2CC[C@H](N3C(=S)N(c4cnc(C#N)c(C(F)(F)F)c4)C(=O)C3(C)C)CC2)C[C@H](C)N1CC(=O)Nc1cccc2c(C3CCC(=O)NC3=O)nn(C)c12 (stereo partly drawn) [Cmpd 4, 2-((2R,6S)-4-(2-((trans-4-(3-(6-Cyano-5-(trifluoromethyl)pyridin-3-yl)-5,5-dimethyl-4-oxo-2-thioxoimidazolidin-1-yl)cyclohexyl)oxy)ethyl)-2,6-dimethylpiperazin-1-yl)-N-(3-(2,6-dioxopiperidin-3-yl)-1-methyl-1H-indazol-7-yl)acetamide hydrochloride] | < 2 nM | 25 to 30%
5 | C[C@@H]1CN(CCCO[C@H]2CC[C@H](N3C(=S)N(c4ccc(C#N)c(Cl)c4)C(=O)C3(C)C)CC2)C[C@H](C)N1CC(=O)Nc1cccc2c(C3CCC(=O)NC3=O)nn(C)c12 (stereo partly drawn) [Cmpd 5, 2-((2R,6S)-4-(3-((trans-4-(3-(3-Chloro-4-cyanophenyl)-5,5-dimethyl-4-oxo-2-thioxoimidazolidin-1-yl)cyclohexyl)oxy)propyl)-2,6-dimethylpiperazin-1-yl)-N-(3-(2,6-dioxopiperidin-3-yl)-1-methyl-1H-indazol-7-yl)acetamide hydrochloride] | < 2 nM | 30 to 50%
6 | C[C@@H]1CN(CCO[C@H]2CC[C@H](N3C(=S)N(c4cnc(C#N)c(Cl)c4)C(=O)C3(C)C)CC2)C[C@H](C)N1CC(=O)Nc1cccc2c(C3CCC(=O)NC3=O)nn(C)c12 (stereo partly drawn) [Cmpd 6, 2-((2R,6S)-4-(2-((trans-4-(3-(5-Chloro-6-cyanopyridin-3-yl)-5,5-dimethyl-4-oxo-2-thioxoimidazolidin-1-yl)cyclohexyl)oxy)ethyl)-2,6-dimethylpiperazin-1-yl)-N-(3-(2,6-dioxopiperidin-3-yl)-1-methyl-1H-indazol-7-yl)acetamide hydrochloride] | < 2 nM | 0 to 25%
7 | C[C@@H]1CN(CCCO[C@H]2CC[C@H](N3C(=S)N(c4cnc(C#N)c(C(F)(F)F)c4)C(=O)C3(C)C)CC2)C[C@H](C)N1CC(=O)Nc1cccc2c(C3CCC(=O)NC3=O)nn(C)c12 (stereo partly drawn) [Cmpd 7, 2-((2R,6S)-4-(3-((trans-4-(3-(6-Cyano-5-(trifluoromethyl)pyridin-3-yl)-5,5-dimethyl-4-oxo-2-thioxoimidazolidin-1-yl)cyclohexyl)oxy)propyl)-2,6-dimethylpiperazin-1-yl)-N-(3-(2,6-dioxopiperidin-3-yl)-1-methyl-1H-indazol-7-yl)acetamide hydrochloride] | < 2 nM | 0 to 25%
8 | C[C@@H]1CN(CCCO[C@H]2CC[C@H](N3C(=S)N(c4ccc(C#N)c(C(F)(F)F)c4)C(=O)C3(C)C)CC2)C[C@H](C)N1CC(=O)Nc1cccc2c(C3CCC(=O)NC3=O)nn(C)c12 (stereo partly drawn) [Cmpd 8, 2-((2R,6S)-4-(3-((trans-4-(3-(4-Cyano-3-(trifluoromethyl)phenyl)-5,5-dimethyl-4-oxo-2-thioxoimidazolidin-1-yl)cyclohexyl)oxy)propyl)-2,6-dimethylpiperazin-1-yl)-N-(3-(2,6-dioxopiperidin-3-yl)-1-methyl-1H-indazol-7-yl)acetamide] | < 2 nM | 25 to 30%
9 | C[C@@H]1CN(CCC[C@H]2CC[C@H](N3C(=S)N(c4cnc(C#N)c(C(F)(F)F)c4)C(=O)C3(C)C)CC2)C[C@H](C)N1CC(=O)Nc1cccc2c(C3CCC(=O)NC3=O)nn(C)c12 (stereo partly drawn) [Cmpd 9, 2-((2R,6S)-4-(3-(trans-4-(3-(6-Cyano-5-(trifluoromethyl)pyridin-3-yl)-5,5-dimethyl-4-oxo-2-thioxoimidazolidin-1-yl)cyclohexyl)propyl)-2,6-dimethylpiperazin-1-yl)-N-(3-(2,6-dioxopiperidin-3-yl)-1-methyl-1H-indazol-7-yl)acetamide] | 2 to 5 nM | 25 to 30%
10 | C[C@@H]1CN(CCC[C@H]2CC[C@H](N3C(=S)N(c4cnc(C#N)c(Cl)c4)C(=O)C3(C)C)CC2)C[C@H](C)N1CC(=O)Nc1cccc2c(C3CCC(=O)NC3=O)nn(C)c12 (stereo partly drawn) [Cmpd 10, 2-((2R,6S)-4-(3-(trans-4-(3-(5-Chloro-6-cyanopyridin-3-yl)-5,5-dimethyl-4-oxo-2-thioxoimidazolidin-1-yl)cyclohexyl)propyl)-2,6-dimethylpiperazin-1-yl)-N-(3-(2,6-dioxopiperidin-3-yl)-1-methyl-1H-indazol-7-yl)acetamide] | 2 to 5 nM | 30 to 50%
11 | C[C@@H]1CN(CCC[C@H]2CC[C@H](N3C(=S)N(c4ccc(C#N)c(Cl)c4)C(=O)C3(C)C)CC2)C[C@H](C)N1CC(=O)Nc1cccc2c(C3CCC(=O)NC3=O)nn(C)c12 (stereo partly drawn) [Cmpd 11, 2-((2S,6R)-4-(3-(trans-4-(3-(3-Chloro-4-cyanophenyl)-5,5-dimethyl-4-oxo-2-thioxoimidazolidin-1-yl)cyclohexyl)propyl)-2,6-dimethylpiperazin-1-yl)-N-(3-(2,6-dioxopiperidin-3-yl)-1-methyl-1H-indazol-7-yl)acetamide] | 5 to 20 nM | 30 to 50%
12 | C[C@@H]1C[C@@H](CCO[C@H]2CC[C@H](N3C(=S)N(c4ccc(C#N)c(C(F)(F)F)c4)C(=O)C3(C)C)CC2)C[C@H](C)N1CC(=O)Nc1cccc2c(C3CCC(=O)NC3=O)nn(C)c12 (stereo partly drawn) [Cmpd 12, 2-((2R,4s,6S)-4-(2-((trans-4-(3-(4-Cyano-3-(trifluoromethyl)phenyl)-5,5-dimethyl-4-oxo-2-thioxoimidazolidin-1-yl)cyclohexyl)oxy)ethyl)-2,6-dimethylpiperidin-1-yl)-N-(3-(2,6-dioxopiperidin-3-yl)-1-methyl-1H-indazol-7-yl)acetamide hydrochloride] | 2 to 5 nM | 0 to 25%

— patent US12227490B2, “Cereblon binding compounds, compositions thereof, and methods of treatment therewith” (Celgene Corporation, priority 2020, dated 2025)
